{"source": "paper PMC5428509", "about": "“Irreversible inhibition of BTK kinase by a novel highly selective inhibitor CHMFL-BTK-11 suppresses inflammatory response in rheumatoid arthritis model” (Scientific Reports, 2017)", "assay_in_all_cases": "biochemical", "set-up_in_all_cases": "KinomeScan competition binding panel (DiscoveRx), percent of control at 1 uM", "settings_in_all_cases": "read-out: Percent Control", "key": {"ABL2": {"target": "ABL2 (Homo sapiens, UniProt P42684)", "outline": "(§1)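 KinomeScan technology used to profile binding across a panel of 456 kinases and mutants.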"}, "SgK110": {"target": "T1, SgK110 (Homo sapiens, UniProt P0C264)", "T1 construct": "gene SBK3", "outline": "as §1"}, "PAK2": {"target": "PAK2 (Homo sapiens, UniProt Q13177)", "outline": "as §1"}, "STK39": {"target": "STK39 (Homo sapiens, UniProt Q9UEW8)", "outline": "as §1"}, "[1]": {"target": "T2, ABL1(T315I)-nonphosphorylated (Homo sapiens, UniProt P00519, T315I)", "T2 construct": "nonphosphorylated", "outline": "as §1"}, "EPHA2": {"target": "EPHA2 (Homo sapiens, UniProt P29317)", "outline": "as §1"}, "CDKL2": {"target": "CDKL2 (Homo sapiens, UniProt Q92772)", "outline": "as §1"}, "MST3": {"target": "T3, MST3 (Homo sapiens, UniProt Q9Y6E0)", "T3 construct": "gene STK24", "outline": "as §1"}, "DCAMKL3": {"target": "T4, DCAMKL3 (Homo sapiens, UniProt Q9C098)", "T4 construct": "gene DCLK3", "outline": "as §1"}, "p38-alpha": {"target": "T5, p38-alpha (Homo sapiens, UniProt Q16539)", "T5 construct": "gene MAPK14", "outline": "as §1"}, "MAPKAPK2": {"target": "MAPKAPK2 (Homo sapiens, UniProt P49137)", "sequence (P49137 whole entry)": "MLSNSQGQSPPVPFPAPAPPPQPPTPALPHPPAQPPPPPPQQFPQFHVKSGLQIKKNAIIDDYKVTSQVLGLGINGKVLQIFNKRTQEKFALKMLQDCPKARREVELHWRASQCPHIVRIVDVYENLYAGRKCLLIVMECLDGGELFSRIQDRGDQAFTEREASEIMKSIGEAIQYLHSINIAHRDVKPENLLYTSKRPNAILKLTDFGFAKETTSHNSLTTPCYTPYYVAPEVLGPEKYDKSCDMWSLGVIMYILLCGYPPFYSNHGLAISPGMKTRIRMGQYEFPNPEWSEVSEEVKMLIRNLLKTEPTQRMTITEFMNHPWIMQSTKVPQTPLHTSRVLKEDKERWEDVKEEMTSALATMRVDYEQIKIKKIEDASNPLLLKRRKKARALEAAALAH", "outline": "as §1"}, "AXL": {"target": "AXL (Homo sapiens, UniProt P30530)", "sequence (P30530 whole entry)": "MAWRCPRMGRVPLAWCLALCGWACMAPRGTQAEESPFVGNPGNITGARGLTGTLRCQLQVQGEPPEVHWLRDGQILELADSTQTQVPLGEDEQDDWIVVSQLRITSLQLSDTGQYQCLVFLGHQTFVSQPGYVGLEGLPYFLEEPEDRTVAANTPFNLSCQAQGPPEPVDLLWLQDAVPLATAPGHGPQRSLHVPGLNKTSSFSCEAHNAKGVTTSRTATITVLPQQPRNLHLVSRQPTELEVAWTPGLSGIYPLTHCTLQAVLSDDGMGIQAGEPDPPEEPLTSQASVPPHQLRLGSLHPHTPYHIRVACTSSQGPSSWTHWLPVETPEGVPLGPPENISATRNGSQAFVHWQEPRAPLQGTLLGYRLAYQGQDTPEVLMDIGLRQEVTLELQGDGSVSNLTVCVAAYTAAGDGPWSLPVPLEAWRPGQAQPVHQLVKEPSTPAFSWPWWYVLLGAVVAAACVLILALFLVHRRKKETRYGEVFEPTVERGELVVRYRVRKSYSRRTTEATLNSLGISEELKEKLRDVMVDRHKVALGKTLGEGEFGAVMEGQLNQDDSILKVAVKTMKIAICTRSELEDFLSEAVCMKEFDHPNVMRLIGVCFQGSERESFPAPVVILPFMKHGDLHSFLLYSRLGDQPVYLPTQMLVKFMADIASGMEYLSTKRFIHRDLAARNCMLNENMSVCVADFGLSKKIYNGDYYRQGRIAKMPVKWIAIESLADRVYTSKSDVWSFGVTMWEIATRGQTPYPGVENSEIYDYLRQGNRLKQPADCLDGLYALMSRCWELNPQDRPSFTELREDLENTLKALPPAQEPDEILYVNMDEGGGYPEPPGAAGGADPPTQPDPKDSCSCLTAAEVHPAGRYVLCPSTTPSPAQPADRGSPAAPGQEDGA", "outline": "as §1"}, "ERK4": {"target": "T6, ERK4 (Homo sapiens, UniProt P31152)", "T6 construct": "gene MAPK4", "outline": "as §1"}, "PKAC-beta": {"target": "T7, PKAC-beta (Homo sapiens, UniProt P22694)", "T7 construct": "gene PRKACB", "outline": "as §1"}, "p38-gamma": {"target": "T8, p38-gamma (Homo sapiens, UniProt P53778)", "T8 construct": "gene MAPK12", "outline": "as §1"}, "PIK3CA(C420R)": {"target": "PIK3CA(C420R) (Homo sapiens, UniProt P42336, C420R)", "outline": "as §1"}, "DRAK1": {"target": "T9, DRAK1 (Homo sapiens, UniProt Q9UEE5)", "T9 construct": "gene STK17A", "T9 sequence (Q9UEE5 whole entry)": "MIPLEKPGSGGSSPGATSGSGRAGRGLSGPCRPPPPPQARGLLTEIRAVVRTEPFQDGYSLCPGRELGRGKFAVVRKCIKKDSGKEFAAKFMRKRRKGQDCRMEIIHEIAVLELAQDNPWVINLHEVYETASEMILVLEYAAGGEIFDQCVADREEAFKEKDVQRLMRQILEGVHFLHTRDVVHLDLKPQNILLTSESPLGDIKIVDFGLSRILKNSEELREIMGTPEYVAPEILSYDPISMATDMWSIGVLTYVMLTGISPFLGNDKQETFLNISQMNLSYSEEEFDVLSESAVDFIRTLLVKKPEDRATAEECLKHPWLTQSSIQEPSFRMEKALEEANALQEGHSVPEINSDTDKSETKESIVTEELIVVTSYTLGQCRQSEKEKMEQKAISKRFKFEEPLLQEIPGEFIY", "outline": "as §1"}, "[2]": {"target": "T10, RSK4(Kin.Dom.2-C-terminal) (Homo sapiens, UniProt Q9UK32)", "T10 construct": "gene RPS6KA6; Kin.Dom.2-C-terminal", "outline": "as §1"}, "CDKL1": {"target": "CDKL1 (Homo sapiens, UniProt Q00532)", "sequence (Q00532 whole entry)": "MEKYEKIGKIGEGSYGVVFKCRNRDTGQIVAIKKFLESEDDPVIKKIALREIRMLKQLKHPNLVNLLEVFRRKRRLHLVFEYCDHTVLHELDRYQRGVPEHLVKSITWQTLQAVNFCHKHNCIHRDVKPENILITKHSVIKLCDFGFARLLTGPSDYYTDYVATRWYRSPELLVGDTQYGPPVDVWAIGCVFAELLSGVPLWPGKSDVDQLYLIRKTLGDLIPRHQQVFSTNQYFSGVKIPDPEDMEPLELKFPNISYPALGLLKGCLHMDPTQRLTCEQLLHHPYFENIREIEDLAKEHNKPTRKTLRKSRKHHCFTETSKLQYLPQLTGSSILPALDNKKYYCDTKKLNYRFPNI", "outline": "as §1"}, "DCAMKL1": {"target": "T11, DCAMKL1 (Homo sapiens, UniProt O15075)", "T11 construct": "gene DCLK1", "outline": "as §1"}, "DAPK2": {"target": "DAPK2 (Homo sapiens, UniProt Q9UIK4)", "sequence (Q9UIK4 whole entry)": "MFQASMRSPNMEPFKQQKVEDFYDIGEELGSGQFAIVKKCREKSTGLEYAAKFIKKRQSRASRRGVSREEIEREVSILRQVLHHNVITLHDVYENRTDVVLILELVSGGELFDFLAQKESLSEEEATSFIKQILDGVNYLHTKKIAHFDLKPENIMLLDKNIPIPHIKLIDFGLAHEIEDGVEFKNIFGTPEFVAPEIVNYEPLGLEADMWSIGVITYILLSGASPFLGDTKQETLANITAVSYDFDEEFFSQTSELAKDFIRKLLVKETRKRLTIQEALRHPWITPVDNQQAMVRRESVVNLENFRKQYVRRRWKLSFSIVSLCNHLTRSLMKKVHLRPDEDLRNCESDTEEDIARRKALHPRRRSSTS", "outline": "as §1"}, "AKT2": {"target": "AKT2 (Homo sapiens, UniProt P31751)", "sequence (P31751 whole entry)": "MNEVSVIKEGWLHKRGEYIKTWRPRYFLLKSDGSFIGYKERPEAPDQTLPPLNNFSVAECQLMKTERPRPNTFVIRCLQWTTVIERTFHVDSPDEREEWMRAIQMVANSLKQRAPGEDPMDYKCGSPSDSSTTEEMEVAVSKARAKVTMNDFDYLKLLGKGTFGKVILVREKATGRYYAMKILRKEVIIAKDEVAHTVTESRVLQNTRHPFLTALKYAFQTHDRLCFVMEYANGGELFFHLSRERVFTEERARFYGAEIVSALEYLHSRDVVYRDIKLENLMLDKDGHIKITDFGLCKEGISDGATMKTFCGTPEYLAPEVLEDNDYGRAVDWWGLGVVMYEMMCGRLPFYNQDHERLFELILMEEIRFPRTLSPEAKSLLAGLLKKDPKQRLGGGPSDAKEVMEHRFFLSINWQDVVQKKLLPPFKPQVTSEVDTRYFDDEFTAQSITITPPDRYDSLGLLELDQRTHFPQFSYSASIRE", "outline": "as §1"}, "PCTK2": {"target": "T12, PCTK2 (Homo sapiens, UniProt Q00537)", "T12 construct": "gene CDK17", "T12 sequence (Q00537 whole entry)": "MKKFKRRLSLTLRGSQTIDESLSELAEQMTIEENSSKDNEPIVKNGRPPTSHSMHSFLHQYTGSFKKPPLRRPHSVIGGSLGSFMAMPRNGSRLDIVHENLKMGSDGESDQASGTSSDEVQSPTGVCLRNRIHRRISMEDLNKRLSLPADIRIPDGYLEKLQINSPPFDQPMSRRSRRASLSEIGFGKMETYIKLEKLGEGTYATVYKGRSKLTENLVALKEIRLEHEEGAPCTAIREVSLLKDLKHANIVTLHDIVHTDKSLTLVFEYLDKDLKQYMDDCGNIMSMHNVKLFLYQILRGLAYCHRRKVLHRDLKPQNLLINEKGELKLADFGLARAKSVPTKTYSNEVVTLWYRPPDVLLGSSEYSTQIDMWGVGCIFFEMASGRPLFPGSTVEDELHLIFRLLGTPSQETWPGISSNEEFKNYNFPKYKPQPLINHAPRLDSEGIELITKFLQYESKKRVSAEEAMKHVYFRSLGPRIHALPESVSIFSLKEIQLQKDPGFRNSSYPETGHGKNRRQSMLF", "outline": "as §1"}, "IKK-alpha": {"target": "T13, IKK-alpha (Homo sapiens, UniProt O15111)", "T13 construct": "gene CHUK", "T13 sequence (O15111 whole entry)": "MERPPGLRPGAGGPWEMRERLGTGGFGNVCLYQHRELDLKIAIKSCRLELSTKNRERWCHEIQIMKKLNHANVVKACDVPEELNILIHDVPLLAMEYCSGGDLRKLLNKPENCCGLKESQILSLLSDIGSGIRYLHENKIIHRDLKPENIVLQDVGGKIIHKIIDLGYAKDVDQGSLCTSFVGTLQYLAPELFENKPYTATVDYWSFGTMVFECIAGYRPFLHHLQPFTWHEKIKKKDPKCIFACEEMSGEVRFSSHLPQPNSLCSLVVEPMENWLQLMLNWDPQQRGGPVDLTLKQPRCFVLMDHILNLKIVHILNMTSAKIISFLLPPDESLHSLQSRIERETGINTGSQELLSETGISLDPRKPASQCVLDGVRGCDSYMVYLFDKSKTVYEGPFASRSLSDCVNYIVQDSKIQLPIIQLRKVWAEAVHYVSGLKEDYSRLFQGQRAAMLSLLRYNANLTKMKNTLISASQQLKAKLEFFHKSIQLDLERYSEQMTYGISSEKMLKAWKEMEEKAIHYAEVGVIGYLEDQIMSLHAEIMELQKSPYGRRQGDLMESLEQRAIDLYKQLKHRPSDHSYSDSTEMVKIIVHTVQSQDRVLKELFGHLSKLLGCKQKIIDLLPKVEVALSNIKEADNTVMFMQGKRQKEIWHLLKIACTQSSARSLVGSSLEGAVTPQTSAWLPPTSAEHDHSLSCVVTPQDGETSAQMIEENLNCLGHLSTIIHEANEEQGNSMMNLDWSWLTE", "outline": "as §1"}, "FES": {"target": "FES (Homo sapiens, UniProt P07332)", "sequence (P07332 whole entry)": "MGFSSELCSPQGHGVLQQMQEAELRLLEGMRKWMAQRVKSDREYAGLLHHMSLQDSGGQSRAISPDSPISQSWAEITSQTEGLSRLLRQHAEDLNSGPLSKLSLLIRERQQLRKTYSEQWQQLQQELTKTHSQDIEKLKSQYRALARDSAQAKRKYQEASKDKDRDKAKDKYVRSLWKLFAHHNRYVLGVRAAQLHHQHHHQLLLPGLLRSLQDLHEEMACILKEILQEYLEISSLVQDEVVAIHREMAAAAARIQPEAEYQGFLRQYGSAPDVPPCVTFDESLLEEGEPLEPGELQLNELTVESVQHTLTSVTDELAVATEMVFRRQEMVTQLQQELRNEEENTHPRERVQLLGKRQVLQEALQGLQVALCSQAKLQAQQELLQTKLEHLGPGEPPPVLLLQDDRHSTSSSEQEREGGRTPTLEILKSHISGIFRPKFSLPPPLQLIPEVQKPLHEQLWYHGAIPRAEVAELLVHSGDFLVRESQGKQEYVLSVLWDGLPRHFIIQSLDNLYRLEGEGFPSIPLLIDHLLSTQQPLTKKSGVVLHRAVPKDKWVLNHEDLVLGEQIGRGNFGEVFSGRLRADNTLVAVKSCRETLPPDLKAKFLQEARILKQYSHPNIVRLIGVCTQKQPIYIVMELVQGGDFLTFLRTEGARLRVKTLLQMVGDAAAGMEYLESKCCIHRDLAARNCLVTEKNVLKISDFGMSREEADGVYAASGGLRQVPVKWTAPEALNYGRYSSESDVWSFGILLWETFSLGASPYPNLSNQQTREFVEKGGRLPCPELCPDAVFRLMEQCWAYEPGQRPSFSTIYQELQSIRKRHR", "outline": "as §1"}}}
{"smiles": "C=CC(=O)Nc1cc(-n2c(=O)ccc3cnc4ccc(-n5cccn5)cc4c32)ccc1C", "note": "[CHMFL-BTK-11]", "values": [{"measurement": "remaining binding at 1 µM", "setting": "ABL2", "result": 100, "unit": "%"}, {"measurement": "remaining binding at 1 µM", "setting": "SgK110", "result": 90, "unit": "%"}, {"measurement": "remaining binding at 1 µM", "setting": "PAK2", "result": 99, "unit": "%"}, {"measurement": "remaining binding at 1 µM", "setting": "STK39", "result": 72, "unit": "%"}, {"measurement": "remaining binding at 1 µM", "setting": "[1]", "result": 79, "unit": "%"}, {"measurement": "remaining binding at 1 µM", "setting": "EPHA2", "result": 88, "unit": "%"}, {"measurement": "remaining binding at 1 µM", "setting": "CDKL2", "result": 81, "unit": "%"}, {"measurement": "remaining binding at 1 µM", "setting": "MST3", "result": 100, "unit": "%"}, {"measurement": "remaining binding at 1 µM", "setting": "DCAMKL3", "result": 88, "unit": "%"}, {"measurement": "remaining binding at 1 µM", "setting": "p38-alpha", "result": 76, "unit": "%"}, {"measurement": "remaining binding at 1 µM", "setting": "MAPKAPK2", "result": 99, "unit": "%"}, {"measurement": "remaining binding at 1 µM", "setting": "AXL", "result": 100, "unit": "%"}, {"measurement": "remaining binding at 1 µM", "setting": "ERK4", "result": 96, "unit": "%"}, {"measurement": "remaining binding at 1 µM", "setting": "PKAC-beta", "result": 100, "unit": "%"}, {"measurement": "remaining binding at 1 µM", "setting": "p38-gamma", "result": 79, "unit": "%"}, {"measurement": "remaining binding at 1 µM", "setting": "PIK3CA(C420R)", "result": 74, "unit": "%"}, {"measurement": "remaining binding at 1 µM", "setting": "DRAK1", "result": 96, "unit": "%"}, {"measurement": "remaining binding at 1 µM", "setting": "[2]", "result": 100, "unit": "%"}, {"measurement": "remaining binding at 1 µM", "setting": "CDKL1", "result": 93, "unit": "%"}, {"measurement": "remaining binding at 1 µM", "setting": "DCAMKL1", "result": 91, "unit": "%"}, {"measurement": "remaining binding at 1 µM", "setting": "DAPK2", "result": 100, "unit": "%"}, {"measurement": "remaining binding at 1 µM", "setting": "AKT2", "result": 100, "unit": "%"}, {"measurement": "remaining binding at 1 µM", "setting": "PCTK2", "result": 94, "unit": "%"}, {"measurement": "remaining binding at 1 µM", "setting": "IKK-alpha", "result": 96, "unit": "%"}, {"measurement": "remaining binding at 1 µM", "setting": "FES", "result": 90, "unit": "%"}]}
